Drawing on US20230089867A1, “CYCLIC PENTAMER COMPOUNDS AS PROPROTEIN CONVERTASE SUBTILISIN/KEXIN TYPE 9 (PCSK9) INHIBITORS FOR THE TREATMENT OF METABOLIC DISORDER” (Novartis AG, priority 2018, published 2023), this text covers Max % inhibition and IC50 for ten compounds.

SMILES strings stand for the structures.

The assay addresses human PCSK9 (Homo sapiens, UniProt Q8NBP7). Briefly: PCSK9 ligand binding TR-FRET assay (interference with binding of human PCSK9 to human LDLR). Conditions: for Max % inhibition: PCSK9 FRET assay, efficacy (Amax), 100% = 1 uM unlabeled human PCSK9, 0% = DMSO; for IC50: TR-FRET, human PCSK9 Alexa Fluor 647 / human LDLR extracellular domain-Europium Kryptate, read-out: PCSK9 FRET Assay IC50. The gist of the method: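 Threefold compound dilutions were pre-incubated 30 min with PCSK9, after which 4 nM Europium Kryptate-tagged human LDLR ectodomain was added for a further 2 h.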
On the technique in general: In TR-FRET formats the signal depends on donor and acceptor labels being close together.

Sequence of human PCSK9 (Q8NBP7 153-692): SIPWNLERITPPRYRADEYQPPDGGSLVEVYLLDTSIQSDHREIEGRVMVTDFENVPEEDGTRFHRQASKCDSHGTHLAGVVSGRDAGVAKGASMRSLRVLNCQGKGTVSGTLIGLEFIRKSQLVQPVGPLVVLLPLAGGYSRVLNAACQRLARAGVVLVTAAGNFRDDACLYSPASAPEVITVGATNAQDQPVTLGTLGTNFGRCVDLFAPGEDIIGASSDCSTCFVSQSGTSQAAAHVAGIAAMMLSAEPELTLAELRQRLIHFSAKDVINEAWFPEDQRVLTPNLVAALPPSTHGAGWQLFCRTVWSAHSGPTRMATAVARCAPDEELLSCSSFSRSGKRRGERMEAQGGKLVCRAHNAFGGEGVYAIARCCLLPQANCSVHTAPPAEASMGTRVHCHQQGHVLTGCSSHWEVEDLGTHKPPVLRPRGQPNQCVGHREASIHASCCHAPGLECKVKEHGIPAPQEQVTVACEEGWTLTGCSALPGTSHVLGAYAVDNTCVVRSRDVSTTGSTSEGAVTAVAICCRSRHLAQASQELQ
Sequence of human PCSK9 (Q8NBP7 31-152 partner limits assumed): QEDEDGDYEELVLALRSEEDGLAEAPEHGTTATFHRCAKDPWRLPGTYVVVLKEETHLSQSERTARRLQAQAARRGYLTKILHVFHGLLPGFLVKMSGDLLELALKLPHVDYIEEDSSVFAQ

By IC50 is commonly meant the concentration that gives 50% inhibition. In the case of `COC[C@@H]1NC(=O)[C@H](C)N(Cc2ccc(Cl)cc2Oc2ccc(-c3cnc(CN(C)C)n3C)cc2)C(=O)C[C@@H](Cc2cc(F)cc(F)c2F)C(=O)N(C)[C@@H](C)CNC(=O)C[C@H](Cc2ccc(Cl)cc2)N(C)C1=O` [Compound 98, (2S,5S,8S,13S,16R)-1-(4-chloro-2-(4-(2-((dimethylamino)methyl)-1-methyl-1H-imidazol-5-yl)phenoxy)benzyl)-8-(4-chlorobenzyl)-5-(methoxymethyl)-2,7,13,14-tetramethyl-16-(2,3,5-trifluorobenzyl)-1,4,7,11,14-pentaazacyclooctadecane-3,6,10,15,18-pentaone], the Max % inhibition amounted to 98.16% and the IC50 was 1.9 nM.
On the same counts, the results for `COC[C@@H]1NC(=O)[C@H](C)N(Cc2ccc(Cl)cc2Oc2ccc(-c3cnc(CN(C)C)n3C)cc2)C(=O)C[C@@H](Cc2ccccc2C#N)C(=O)N(C)[C@@H](C)[C@H](C)NC(=O)C[C@H](Cc2ccc(Cl)cc2)N(C)C1=O` [Compound 99, 2-(((2S,5S,8S,12S,13S,16R)-1-(4-chloro-2-(4-(2-((dimethylamino)methyl)-1-methyl-1H-imidazol-5-yl)phenoxy)benzyl)-8-(4-chlorobenzyl)-5-(methoxymethyl)-2,7,12,13,14-pentamethyl-3,6,10,15,18-pentaoxo-1,4,7,11,14-pentaazacyclooctadecan-16-yl)methyl)benzonitrile] are 104.20% and 1.6 nM.
On the same counts, the results for `COC[C@@H]1NC(=O)[C@H](C)N(Cc2ccc(Cl)cc2Oc2ccc(-c3cnc(CN(C)C)n3C)cc2)C(=O)C[C@@H](CC23CC(C2)C3)C(=O)N(C)[C@H]2CCCC[C@@H]2NC(=O)C[C@H](Cc2ccc(Cl)cc2)N(C)C1=O` [Compound 100, (4S,7S,10S,14R,16aS,20aS)-14-(bicyclo[1.1.1]pentan-1-ylmethyl)-11-(4-chloro-2-(4-(2-((dimethylamino)methyl)-1-methyl-1H-imidazol-5-yl)phenoxy)benzyl)-4-(4-chlorobenzyl)-7-(methoxymethyl)-5,10,16-trimethylhexadecahydrobenzo[l][1,4,7,11,14]pentaazacyclooctadecine-2,6,9,12,15(3H)-pentaone] are 105.41% and 5.4 nM.
On the same counts, the results for `COC[C@@H]1NC(=O)[C@H](CCN2CCOCC2)N(Cc2ccc(Cl)cc2Oc2ccc(-c3cnc(CN(C)C)n3C)cc2)C(=O)C[C@@H](Cc2ccccc2)C(=O)N(C)[C@H]2CCCC[C@@H]2NC(=O)C[C@H](Cc2ccc(Cl)cc2)N(C)C1=O` [Compound 101, (4S,7S,10S,14R,16aS,20aS)-14-benzyl-11-(4-chloro-2-(4-(2-((dimethylamino)-methyl)-1-methyl-1H-imidazol-5-yl)phenoxy)benzyl)-4-(4-chlorobenzyl)-7-(methoxymethyl)-5,16-dimethyl-10-(2-morpholinoethyl)hexadecahydrobenzo-[l][1,4,7,11,14]pentaazacycloocta-decine-2,6,9,12,15(3H)-pentaone] are 94.32% and 1.1 nM.
Regarding `COC[C@@H]1NC(=O)[C@H](C)N(Cc2ccc(C)cc2Oc2ccc(-c3cnc(CN(C)C)n3C)cc2)C(=O)C[C@@H](Cc2ccccc2)C(=O)N(C)[C@@H](C)[C@H](C)NC(=O)C[C@H](Cc2ccc(Cl)cc2)N(C)C1=O` [Compound 102, (2S,5S,8S,12S,13S,16R)-16-benzyl-8-(4-chlorobenzyl)-1-(2-(4-(2-((dimethylamino)methyl)-1-methyl-1H-imidazol-5-yl)phenoxy)-4-methylbenzyl)-5-(methoxymethyl)-2,7,12,13,14-pentamethyl-1,4,7,11,14-pentaazacyclooctadecane-3,6,10,15,18-pentaone], the Max % inhibition was determined as 101.56% and the 50% inhibitory concentration (IC50) was found to be 1.5 nM.
Regarding `COC[C@@H]1NC(=O)[C@H](C)N(Cc2ccc(Cl)cc2Oc2ccc(-c3cnc([C@@H](C)N(C)C)n3C)cc2)C(=O)C[C@@H](Cc2ccccc2)C(=O)N(C)[C@H]2CCCC[C@@H]2NC(=O)C[C@H](Cc2ccc(Cl)cc2)N(C)C1=O` [Compound 104, (4S,7S,10S,14R,16aS,20aS)-14-benzyl-11-(4-chloro-2-(4-(2-((R)-1-(dimethylamino)ethyl)-1-methyl-1H-imidazol-5-yl)phenoxy)benzyl)-4-(4-chlorobenzyl)-7-(methoxymethyl)-5,10,16-trimethylhexadecahydrobenzo[l][1,4,7,11,14]pentaazacyclooctadecine-2,6,9,12,15(3H)-pentaone], the Max % inhibition was found to be 109.94% and the IC50 amounted to 1.4 nM.
On the same counts, the results for `COC[C@@H]1NC(=O)[C@H](C)N(Cc2ccc(Cl)cc2Oc2ccc(-n3cnc(CN(C)C)c3C)cc2)C(=O)C[C@@H](Cc2ccccn2)C(=O)N(C)[C@H]2CCCC[C@@H]2NC(=O)C[C@H](Cc2ccc(Cl)cc2)N(C)C1=O` [Compound 105, (4S,7S,10S,14R,16aS,20aS)-11-(4-chloro-2-(4-(4-((dimethylamino)methyl)-5-methyl-1H-imidazol-1-yl)phenoxy)benzyl)-4-(4-chlorobenzyl)-7-(methoxymethyl)-5,10,16-trimethyl-14-(pyridin-2-ylmethyl)hexadecahydrobenzo[l][1,4,7,11,14]pentaazacyclooctadecine-2,6,9,12,15(3H)-pentaone] are 104.44% and 1 nM.
The matching figures for `C=CC[C@@H]1CC(=O)N(Cc2ccc(C)cc2Oc2ccc(-c3cnc(CN(C)C)n3C)cc2)[C@@H](C)C(=O)N[C@@H](COC)C(=O)N(C)[C@@H](Cc2ccc(Cl)cc2)CC(=O)N[C@@H](C)[C@H](C)N(C)C1=O` [Compound 107, (2S,5S,8S,12S,13S,16R)-16-allyl-8-(4-chlorobenzyl)-1-(2-(4-(2-((dimethylamino)methyl)-1-methyl-1H-imidazol-5-yl)phenoxy)-4-methylbenzyl)-5-(methoxymethyl)-2,7,12,13,14-pentamethyl-1,4,7,11,14-pentaazacyclooctadecane-3,6,10,15,18-pentaone]: 100.41% and 1.7 nM.
The matching figures for `COC[C@@H]1NC(=O)[C@H](C)N(Cc2ccc(Cl)cc2Oc2ccc(-c3cnc(CN4CCCC4)n3C)cc2)C(=O)C[C@@H](Cc2ccc(F)cc2)C(=O)N(C)[C@@H](C)CNC(=O)C[C@H](Cc2ccc(Cl)cc2)N(C)C1=O` [Compound 108, (2S,5S,8S,13S,16R)-1-(4-chloro-2-(4-(1-methyl-2-(pyrrolidin-1-ylmethyl)-1H-imidazol-5-yl)phenoxy)benzyl)-8-(4-chlorobenzyl)-16-(4-fluorobenzyl)-5-(methoxymethyl)-2,7,13,14-tetramethyl-1,4,7,11,14-pentaazacyclooctadecane-3,6,10,15,18-pentaone]: 99.73% and 0.7 nM.
On to `C=CC[C@@H]1CC(=O)N(Cc2ccc(Cl)cc2Oc2ccc(-c3cnc(CN(C)C)n3C)cc2)[C@@H](C)C(=O)N[C@@H](COC)C(=O)N(C)[C@@H](Cc2ccc(Cl)cc2)CC(=O)N[C@H]2CCCC[C@@H]2N(C)C1=O` [Compound 110, (4S,7S,10S,14R,16aS,20aS)-14-allyl-11-(4-chloro-2-(4-(2-((dimethylamino)methyl)-1-methyl-1H-imidazol-5-yl)phenoxy)benzyl)-4-(4-chlorobenzyl)-7-(methoxymethyl)-5,10,16-trimethylhexadecahydrobenzo[l][1,4,7,11,14]pentaazacyclooctadecine-2,6,9,12,15(3H)-pentaone], for which the Max % inhibition stood at 99.22% and the IC50 is 1.2 nM.
